We go through one molecule from ChEMBL document CHEMBL1681698, “HY251, a novel decahydrocyclopenta[a]indene analog, from Aralia continentalis induces apoptosis via down-regulation of AR expression in human prostate cancer LNCaP cells” (Bioorg Med Chem Lett, 2011).

The structures appear in SMILES notation. Calls of active or inactive are those of the source. No cut-off for these calls is given here.

For assay [1], the system named is LNCaP. In words: Induction of apoptosis in human androgen-dependent LNCAP cells assessed as cytochrome c release from mitochondria at 95 uM after 24 hrs by Western blot analysis. It counts as functional, cell-based. (In general: In western blotting, separated proteins are transferred to a membrane and probed.)
The subject of assay [2] is LNCaP. Kind of assay: Induction of apoptosis in human androgen-dependent LNCAP cells assessed as inhibition of PSA gene expression at 95 uM by RT-PCR analysis. It counts as functional, cell-based.
The subject of assay [3] is LNCaP. Kind of assay: Induction of apoptosis in human androgen-dependent LNCAP cells assessed as inhibition of androgen receptor expression at 95 uM by Western blot analysis. It counts as functional, cell-based. Particulars: TDE = time-dependent effect.
Assay [4] concerns LNCaP. In words: Induction of apoptosis in human androgen-dependent LNCAP cells assessed as inhibition of androgen receptor gene expression at 95 uM by RT-PCR analysis in presence of 1 nM […]. It counts as functional, cell-based.
For assay [5], the system named is LNCaP. In words: Induction of apoptosis in human androgen-dependent LNCAP cells assessed as nuclei DNA fragmentation at 95 uM after 24 hrs by TUNEL assay. It counts as functional, cell-based.
For assay [6], the system named is LNCaP. In words: Induction of apoptosis in human androgen-dependent LNCAP cells assessed as PARP cleavage at 95 uM after 12 hrs by Western blot analysis. In kind it is functional, cell-based.
Assay [7] has as its system LNCaP. Kind of assay: Induction of apoptosis in human androgen-dependent LNCAP cells assessed as inhibition of androgen receptor gene expression at 95 uM by RT-PCR analysis. It counts as functional, cell-based.
For assay [8], the system named is LNCaP. Kind of assay: Induction of apoptosis in human androgen-dependent LNCAP cells assessed as increase in active caspase 9 at 95 uM up to 48 hrs by Western blot analysis. It counts as functional, cell-based.
In assay [9] the test system is LNCaP. Kind of assay: Induction of apoptosis in human androgen-dependent LNCAP cells assessed as inhibition of PSA protein expression at 95 uM by Western blot analysis. Conditions: TDE = time-dependent effect. It counts as functional, cell-based.
The subject of assay [10] is LNCaP. Kind of assay: Induction of apoptosis in human androgen-dependent LNCAP cells assessed as […] after 24 hrs by MTT assay. It counts as functional, cell-based. (In general: Tetrazolium dyes change colour on reduction, which living cells bring about.)
Assay [11] is described as follows: Induction of apoptosis in human hormone-refractory C4-2B cells assessed as cell viability after 24 hrs by MTT assay. Conditions: LNCaP C4-2B. It counts as functional.
Assay [12] deals with LNCaP. Kind of assay: Induction of apoptosis in human androgen-dependent LNCAP cells assessed as increase in active caspase 3 at 95 uM up to 48 hrs by Western blot analysis. In kind it is functional, cell-based.
For assay [13], the system named is LNCaP. Kind of assay: Induction of apoptosis in human androgen-dependent LNCAP cells assessed as inhibition of PSA gene expression at 95 uM by RT-PCR analysis in presence of 1 nM […]. It counts as functional, cell-based.

In general, IC50 refers to the concentration needed to halve the response being measured. As for `C=CC1CC2(O)CC3(O)CCC=CC3C2(O)C1(O)CCC` (stereo not drawn), the result with LNCaP [1], in the assay with LNCaP [2], with LNCaP [4], in the assay with LNCaP [5], in the assay with LNCaP [6] and in the assay on LNCaP [7] was Active. Also, the outcome with LNCaP [8], in the assay on LNCaP [12] and in the assay on LNCaP [13] was Active. The Activity result in the assay with LNCaP [3] and with LNCaP [9] was “tde” throughout. Moreover, the IC50 in the assay with LNCaP [10] was found to be 95 µM; in assay [11] it was 199 µM.
